The numbers were not newly measured in paper PMC10654029 (The Journal of Biological Chemistry, 2023), which cites them from elsewhere.

The structures appear in SMILES notation.

For data set [1], the system named is Ba/F3 cells expressing METex14 F1200I. As to conditions: Ba/F3 cells expressing METex14 F1200I vs WT.
The test system of data set [2] is Ba/F3 cells expressing METex14 L1195V. Conditions: Ba/F3 cells expressing METex14 L1195V vs WT.

With `CN1CCC(COc2cnc(-c3cccc(Cn4nc(-c5cccc(C#N)c5)ccc4=O)c3)nc2)CC1` [tepotinib], the “decrease of cellular potency compared with the WT” value in data set [1] and in data set [2] was approximately 15 fold each time.
